{
  "source": "patent US20090306342A1",
  "about": "“BINDING OF MOLECULES” (BIO-LAYER PTY LIMITED, priority 2005, published 2009)",
  "key": {"Human IgG": {"test_system": "Human IgG", "test": "SPR IgG binding assay on gold (Example 4)", "settings": "IgG 10-100 ug/mL, polyacrylic acid on gold, FIG. 7", "method": "Slides were then rinsed in Ethanol and incubated in a solution of 1% Polyacrylic acid. 2% w/v Polyacrylic acid was prepared by adding […] of Stock 10% w/v PAA solution (Poly(Acrylic Acid) MW 50K 10% w/v solution in DMF) to […] (N,N-Dimethylformamide (DMF) Labscan HPLC Grade—Dried over sieves and filtered). 100 mM solutions of NHS and DIC were prepared in dry DMF (N-Hydroxysuccinimide (NHS) (Aldrich cat: 130672), N,N′-Diisopropylcarbodiimide (DIC) (Sigma Aldrich cat: D125407)). 15 mL of 100 mM NHS and 15 mL of 100 mM DIC were added to 30 mL of 2% w/v of PAA solution and shaken on a RATEK platform mixer with speed setting 70 for 10 minutes. This gave a final 1.0% w/v solution of activated PAA. Each amino functionalized gold slide was placed in 10 mL of activated 1% wlv PAA solution and allowed to shake on a RATEK platform mixer with speed setting […] for 1 hour. The slides were then rinsed with dry DMF and using house nitrogen with a filter pipette tip in the end of the hose, the slides were blown dry using a concentrated flow over each slide. […]\nThe first concentration of IgG to be flowed through the cell and over the slide was 10 μg/mL. […] After the final concentration of 100 μg/mL IgG was analyzed, the signal was monitored by flowing 10 mM Phosphate Buffered Saline pH7.4 with 0.2% Tween20 over the slide. […]"}, "Fc of an antibody": {"test_system": "Fc of an antibody", "settings": "Protein A binding region; cited from earlier work"}},
  "note": "“Also recorded” adds a separate entry of the source.",
  "data": [
    {"smiles": "NCCNc1nc(NCCc2ccc(O)cc2)nc(Nc2ccccc2)n1", "note": "[APA, 2-(2-aminoethylamino)-4-anilino-6-tyramino-s-triazine]", "values": [
      {"measurement": "IgG binding by SPR", "setting": "Human IgG", "value": "poor or non-existent"},
      {"measurement": "affinity for the Fc of an antibody", "setting": "Fc of an antibody", "value": "medium affinity; also recorded: weakly binds"}
    ]}
  ]
}
